Counter-ions that a name gives are not always drawn.
Target: human NK1 receptor (Homo sapiens, UniProt P25103)
Experiment: NK1 receptor test by the methods of WO 93/01165 (pages 36 to 39)
Type: binding
Protocol: The exemplified compounds of this invention were tested by the methods set out at pages 36 to 39 of International Patent Specification No. WO 93/01165.

Sequence of human NK1 receptor (P25103 whole entry): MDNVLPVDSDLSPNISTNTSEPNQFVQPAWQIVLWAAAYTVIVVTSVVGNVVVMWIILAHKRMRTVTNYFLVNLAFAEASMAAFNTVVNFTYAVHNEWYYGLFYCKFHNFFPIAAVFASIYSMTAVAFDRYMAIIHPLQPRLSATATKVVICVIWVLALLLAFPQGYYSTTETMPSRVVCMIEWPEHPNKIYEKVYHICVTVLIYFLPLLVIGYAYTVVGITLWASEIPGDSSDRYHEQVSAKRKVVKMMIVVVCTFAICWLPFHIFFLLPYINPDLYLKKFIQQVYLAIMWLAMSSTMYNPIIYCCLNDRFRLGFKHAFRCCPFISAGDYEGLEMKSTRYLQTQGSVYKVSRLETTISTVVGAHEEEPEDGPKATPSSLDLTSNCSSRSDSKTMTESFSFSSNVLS

SMILES	IC50
Fc1ccc(C2NCCCC2NCc2cc(-n3nnnc3C(F)(F)F)ccc2OC2CC2)cc1 (racemic) [Example 2, (±)-(2 R3 R 2 S3 S)-N-({2-Cyclopropoxy-5-[5-(trifluoromethyl)tetrazol-1-yl]phenyl}methyl)-2-(4-fluorophenyl)piperidin-3-amine Dihydrochloride]	0.13 nM
FC(F)(F)c1nnnn1-c1ccc(OC2CC2)c(CN[C@H]2CCCN[C@H]2c2ccccc2)c1 [Example 1, (2 S3 S)-N-({2-Cyclopropoxy-5-[5-(trifluoromethyl)tetrazol-1-yl]phenyl}methyl)-2-phenylpiperidin-3-amine Dihydrochloride]	0.08 nM

Reference: patent US20020052504A1, “PIPERIDINE DERIVATIVES AND THEIR USE AS TACHYKININ ANTAGONISTS” (priority 1997, published 2002)
